Source: ChEMBL document CHEMBL4689842, “EUbOPEN Chemogenomics Library wave 1” (2021)

Assays:
Format in all cases: toxicity, cell-based
Fibroblast = assay: Incucyte cell viability with human fibroblast; conditions: 10 µM, compound concentration 10 uM
U2OS = assay: Incucyte cell viability with U2OS; conditions: human, 10 µM, compound concentration 10 uM
HEK-293T = assay: Incucyte cell viability with HEK293T; conditions: human, 10 µM, compound concentration 10 uM
[1] = 0 h, replicate number 1, timepoint 0 hours
[2] = 6 h, replicate number 1, timepoint 6 hours
[3] = 12 h, replicate number 1, timepoint 12 hours
[4] = 12 h, replicate number 2, timepoint 12 hours
[5] = 18 h, replicate number 1, timepoint 18 hours
[6] = 18 h, replicate number 2, timepoint 18 hours
[7] = 24 h, replicate number 1, timepoint 24 hours
[8] = 24 h, replicate number 2, timepoint 24 hours
[9] = 0 h, replicate number 2, timepoint 0 hours
[10] = 6 h, replicate number 2, timepoint 6 hours
Note: filed as whole numbers so only -1 and 0 and 1 occur.

| SMILES | Growth Rate (Fibroblast; [1]) | Growth Rate (Fibroblast; [2]) | Growth Rate (Fibroblast; [3]) | Growth Rate (Fibroblast; [5]) | Growth Rate (Fibroblast; [6]) | Growth Rate (Fibroblast; [7]) | Growth Rate (U2OS; [10]) | Growth Rate (U2OS; [3]) | Growth Rate (U2OS; [4]) | Growth Rate (U2OS; [5]) | Growth Rate (U2OS; [7]) | Growth Rate (HEK-293T; [1]) | Growth Rate (HEK-293T; [2]) | Growth Rate (HEK-293T; [3]) | Growth Rate (HEK-293T; [5]) | Growth Rate (HEK-293T; [7]) | Growth Rate (Fibroblast; [10]) | Growth Rate (U2OS; [1]) | Growth Rate (U2OS; [2]) | Growth Rate (HEK-293T; [9]) | other results |
| --- | --- | --- | --- | --- | --- | --- | --- | --- | --- | --- | --- | --- | --- | --- | --- | --- | --- | --- | --- | --- | --- |
| COC(=O)/C=C/c1cccc(N(Cc2ccc(-c3ccc(N(C)C)cc3)cc2)C(=O)C2CCCCC2)c1 [FEXARAMINE] | 0 | 0 | 1 | 1 | 0 | 1 | 0 | 1 | 0 | 1 | 0 | 0 | 1 | 0 | 0 | 0 | – | – | – | – | Growth Rate (Fibroblast; [4]): 0; Growth Rate (Fibroblast; [8]): 0; Growth Rate (U2OS; [9]): 0; Growth Rate (U2OS; [6]): 0; Growth Rate (HEK-293T; [10]): 0 |
| CC(C)(O)c1ccccc1CC[C@@H](SCC1(CC(=O)[O-])CC1)c1cccc(/C=C/c2ccc3ccc(Cl)cc3n2)c1.[Na+] [MONTELUKAST SODIUM] | 0 | – | 1 | 1 | – | 1 | 0 | 1 | – | 1 | 1 | 0 | 1 | 0 | 1 | 1 | 0 | 0 | – | – | Growth Rate (HEK-293T; [10]): 0; Growth Rate (HEK-293T; [6]): 0; Growth Rate (HEK-293T; [8]): 0 |
| CCOC(=O)CCNc1cc(N2CCc3ccccc3CC2)nc(-c2cccnc2)n1 | – | 1 | 1 | 1 | 0 | 1 | – | 1 | 0 | 1 | 1 | – | 0 | 0 | 0 | 0 | 0 | – | 1 | 1 | Growth Rate (Fibroblast; [9]): 1; Growth Rate (U2OS; [9]): 0; Growth Rate (U2OS; [6]): 0; Growth Rate (U2OS; [8]): 0 |
| Cn1c(CNc2cccc(C(=O)NCc3ccccc3C(F)(F)F)c2)nnc1-c1ccncc1 | 1 | 0 | 0 | 0 | – | 0 | – | 0 | 1 | 0 | 0 | 0 | – | – | – | – | – | – | 0 | – | Growth Rate (Fibroblast; [9]): 0; Growth Rate (U2OS; [9]): 0; Growth Rate (HEK-293T; [8]): 1 |
| COc1ccc(-c2ccc3cc(C(=O)O)ccc3c2)cc1C12CC3CC(CC(C3)C1)C2 | 1 | 0 | 0 | 0 | 1 | 0 | 0 | 1 | 0 | 0 | 0 | 0 | 1 | 0 | 0 | 0 | – | 0 | – | – | Growth Rate (HEK-293T; [10]): 0; Growth Rate (HEK-293T; [6]): 1 |
| Cc1cc([C@@H](C)Nc2ccccc2C(=O)O)c2nc(N3CCOCC3)cc(=O)n2c1 [AZD-6482] | – | 0 | 0 | 0 | 1 | 1 | 1 | 0 | 1 | 0 | 0 | – | 0 | 0 | 0 | 0 | – | 0 | 0 | – | Growth Rate (Fibroblast; [9]): 0; Growth Rate (U2OS; [6]): 1; Growth Rate (HEK-293T; [4]): 1; Growth Rate (HEK-293T; [8]): 1 |
| CC(C)Oc1ccc(-c2c[nH]cc2CN(C)CCN)cc1 | 0 | – | – | 1 | 0 | 1 | – | 1 | – | 0 | 0 | 0 | – | – | – | – | 0 | 0 | 0 | 1 | Growth Rate (Fibroblast; [4]): 0; Growth Rate (Fibroblast; [8]): 0; Growth Rate (U2OS; [6]): 1; Growth Rate (U2OS; [8]): 1; Growth Rate (HEK-293T; [8]): 1 |
| CN(C)C(=O)Cn1cc(-c2nc([C@@](C)(c3ccc(-c4cnc(N)nc4)cc3)C3CC3)no2)cn1 [BI 665915] | 1 | 1 | 1 | 0 | 1 | 0 | 1 | 1 | – | 0 | 1 | 0 | 0 | 0 | 0 | 0 | – | 0 | 0 | 1 | Growth Rate (Fibroblast; [8]): 1; Growth Rate (U2OS; [8]): 0; Growth Rate (HEK-293T; [4]): 1; Growth Rate (HEK-293T; [6]): 1; Growth Rate (HEK-293T; [8]): 1 |
| Nc1ncnc2c1ccn2[C@@H]1O[C@H]([C@H](O)c2ccccc2)[C@@H](O)[C@H]1O | – | – | – | 1 | – | 1 | – | 0 | 1 | 0 | 0 | – | 1 | – | 1 | 1 | 1 | 0 | 0 | 1 | Growth Rate (Fibroblast; [9]): 0; Growth Rate (Fibroblast; [4]): 0; Growth Rate (Fibroblast; [8]): 0; Growth Rate (U2OS; [6]): 1; Growth Rate (U2OS; [8]): 1; Growth Rate (HEK-293T; [4]): 1 |
| COC(=O)C(Cc1ccc(OCCn2c(=O)sc3cc(C(=O)c4ccccc4)ccc32)cc1)C(=O)OC | 0 | – | 1 | 1 | 0 | 1 | 1 | 1 | – | 1 | 1 | 1 | 0 | 0 | 0 | 0 | 0 | 0 | – | 0 | Growth Rate (Fibroblast; [4]): 0 |
| Cl.Clc1ccc(CCCOCCCN2CCCCC2)cc1 [PITOLISANT HYDROCHLORIDE] | 0 | – | – | 1 | – | 1 | – | 1 | – | 1 | 1 | – | 0 | 0 | 0 | 0 | – | 0 | – | 0 | – |
| COc1ccc(S(=O)(=O)c2cc(OC)ccc2S(=O)(=O)c2ccc([C@H](C)NS(C)(=O)=O)cc2)cc1 | 0 | – | – | – | 1 | 1 | 0 | 0 | 1 | 1 | 1 | 1 | 0 | 1 | 1 | 1 | 0 | 0 | – | 0 | Growth Rate (Fibroblast; [9]): 1; Growth Rate (Fibroblast; [4]): 1; Growth Rate (U2OS; [6]): 0; Growth Rate (U2OS; [8]): 0; Growth Rate (HEK-293T; [10]): 1 |
| O=C(O)Cn1c(C(=O)Nc2nc(-c3ccccc3Cl)cs2)cc2ccccc21 | 0 | 1 | 0 | 1 | 0 | 0 | 0 | 1 | – | 0 | 1 | 0 | 1 | 1 | 1 | 1 | 0 | – | – | – | Growth Rate (Fibroblast; [9]): 1; Growth Rate (U2OS; [9]): 0; Growth Rate (HEK-293T; [10]): 0; Growth Rate (HEK-293T; [4]): 0; Growth Rate (HEK-293T; [6]): 0; Growth Rate (HEK-293T; [8]): 0 |
| Cc1cnc(-c2cc(Cl)ccc2F)cc1-n1c(=O)n(CC(N)=O)c2ccccc21 [Al11] | 0 | 1 | 1 | 0 | – | 1 | 0 | 1 | 0 | 1 | 1 | 0 | – | – | 1 | 1 | – | 0 | 1 | 1 | Growth Rate (Fibroblast; [8]): 0; Growth Rate (HEK-293T; [10]): 0; Growth Rate (HEK-293T; [4]): 1 |
| COc1cc2c(cc1NS(=O)(=O)c1ccc(Br)cc1C)n(C)c(=O)n2C | 0 | – | 1 | 1 | – | 1 | – | 1 | – | 1 | 1 | 1 | 0 | 0 | 0 | 0 | 0 | 0 | 1 | 0 | Growth Rate (Fibroblast; [4]): 0; Growth Rate (Fibroblast; [8]): 0 |
| CCCOc1ccc([C@H]2[C@H](C(=O)O)[C@@H](c3ccc4c(c3)OCO4)CN2CC(=O)Nc2c(CC)cccc2CC)cc1 [A-192621] | 0 | 1 | 1 | 1 | – | 1 | – | 0 | – | 0 | 0 | 0 | 0 | 0 | 0 | 0 | 0 | – | 0 | – | Growth Rate (Fibroblast; [9]): 1; Growth Rate (U2OS; [6]): 1; Growth Rate (U2OS; [8]): 1; Growth Rate (HEK-293T; [6]): 1 |
